“Also recorded” adds a separate entry of the source.
Columns and labels:
thymus weight = assay: Rat model of thymus involution; assay type: in vivo; conditions: 3 daily IT doses of 100 μg
[1] = Pharmacokinetics after intra-tracheal dry powder dosing in the pig; assay type: in vivo; conditions: for time after dosing up to which quantifiable in plasma / AUC (0-inf): 1 mg intra-tracheal dry powder; for time after dosing up to which quantifiable in plasma: LC-MS/MS, lower limits of quantitation 10 and 20 pg/mL; for Cmax: 1 mg intra-tracheal dry powder blend in lactose, anaesthetised; for AUC (0-inf): Example 1 value calculated with plasma half-life from IV dosing
Method: Serial blood samples were taken for up to 8 h following dosing.

[2] = Pharmacokinetics after intravenous administration in the anaesthetised pig; assay type: in vivo; conditions: mixture of the two compounds IV at 0.1 mg/kg
Text: The clearance of these two glucocortocoids is similar is this experimental pig model.

lung eosinophilia = assay: Ovalbumin sensitised Brown Norway rat eosinophilia model; assay type: in vivo; conditions: for inhibition of lung eosinophilia: single intra-tracheal dose of 30 μg, suspension in saline, 30 min prior to ovalbumin challenge
Method: Pharmacological activity in vivo was assessed in an ovalbumin sensitised Brown Norway rat eosinophilia model. This model is designed to mimic allergen induced lung eosinophilia, a major component of lung inflammation in asthma.

glucocorticoid receptor = biological target: T1, glucocorticoid receptor (Homo sapiens, UniProt P04150); assay: Functional in vitro assay of glucocorticoid agonist activity (A549 cells, NF-κB/ELAM promoter sPAP reporter, TNF stimulated); assay type: cell-based; conditions: for EC50: A549 cells, NF-κB responsive sPAP reporter, compound 1 hour at 37° C., then TNF 10 ng/ml for 16 hours
T1 construct: A549 cells stably transfected with a reporter gene containing the NF-κB responsive elements from the ELAM gene promoter; endogenous in cells; host or cells: A549 cells stably transfected with the reporter gene only
T1 sequence (P04150 1-777): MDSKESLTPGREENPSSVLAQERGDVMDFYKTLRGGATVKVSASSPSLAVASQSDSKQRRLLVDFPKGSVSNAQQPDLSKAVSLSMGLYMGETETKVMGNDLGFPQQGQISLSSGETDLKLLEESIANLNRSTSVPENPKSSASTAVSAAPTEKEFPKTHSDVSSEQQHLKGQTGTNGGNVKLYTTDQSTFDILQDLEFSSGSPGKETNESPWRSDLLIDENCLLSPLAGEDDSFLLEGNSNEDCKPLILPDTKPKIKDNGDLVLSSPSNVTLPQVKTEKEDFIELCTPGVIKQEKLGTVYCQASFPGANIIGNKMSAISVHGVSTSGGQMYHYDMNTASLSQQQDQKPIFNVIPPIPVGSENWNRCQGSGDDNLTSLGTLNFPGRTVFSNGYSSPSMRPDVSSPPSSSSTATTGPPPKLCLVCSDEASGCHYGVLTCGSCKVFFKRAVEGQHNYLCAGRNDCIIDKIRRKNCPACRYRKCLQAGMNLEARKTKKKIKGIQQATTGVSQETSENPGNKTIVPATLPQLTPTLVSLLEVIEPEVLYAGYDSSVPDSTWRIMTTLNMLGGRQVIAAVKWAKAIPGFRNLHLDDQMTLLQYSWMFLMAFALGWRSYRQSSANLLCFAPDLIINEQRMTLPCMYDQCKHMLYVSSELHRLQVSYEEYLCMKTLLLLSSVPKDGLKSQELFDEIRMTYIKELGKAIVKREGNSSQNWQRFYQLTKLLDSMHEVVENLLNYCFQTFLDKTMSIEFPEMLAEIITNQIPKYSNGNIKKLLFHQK
Method: Pharmacological activity was assessed in a functional in vitro assay of glucocorticoid agonist activity which is generally predictive of anti-inflammatory or anti-allergic activity in vivo.
A549 cells stably transfected with a reporter gene containing the NF-κB responsive elements from the ELAM gene promoter coupled to sPAP (secreted alkaline phosphatase) were treated with test compounds at appropriate doses for 1 hour at 37° C. […] Dose response curves were constructed from which EC50 values were estimated.

[3] = biological target: T2, glucocorticoid receptor (GR) (Homo sapiens, UniProt P04150); assay: Transactivation (GR): renilla luciferase reporter with glucocorticoid response elements in A549 cells; assay type: cell-based; conditions: GRE renilla luciferase reporter, 1 h compound, then 0.5 ng/ml TNFα, further 15 hours, read-out: Transactivation (GR) ED50
Text: (§1) The glucocorticoid receptor (GR) can function in at least two distinct mechanisms, by upregulating gene expression through the direct binding of GR to specific sequences in gene promoters, and by downregulating gene expression that is being driven by other transcription factors (such as NFκB or AP-1) through their direct interaction with GR.
(§2) The first cell line contains the firefly luciferase reporter gene under the control of a synthetic promoter that specifically responds to activation of the transcription factor NFκB when stimulated with TNFα. The second cell line contains the renilla luciferase reporter gene under the control of a synthetic promotor that comprises 3 copies of the consensus glucocorticoid response element, and which responds to direct stimulation by glucocorticoids. Simultaneous measurement of transactivation and transrepression was conducted by mixing the two cell lines in a 1:1 ratio in 96 well plate (40,000 cells per well) and growing overnight at 37° C. Test compounds were dissolved in DMSO, and added to the cells at a final DMSO concentration of 0.7%. After incubation for 1 h 0.5 ng/ml TNFα (R&D Systems) was added and after a further 15 hours at 37° C., the levels of firefly and renilla luciferase were measured using the Packard Firelite kit following the manufacturers' directions. Dose response curves were constructed from which EC50 values were determined.

[4] = biological target: T2, glucocorticoid receptor (GR); assay: Transrepression (NFκB): firefly luciferase NFκB reporter in A549 cells stimulated with TNFα; assay type: cell-based; conditions: 1 h compound, then 0.5 ng/ml TNFα, further 15 hours, read-out: Transrepression (NFκB) ED50
Text: as §1, §2

[5] = Pharmacokinetics after intravenous (IV) and oral dosing in rats; conditions: for plasma clearance (in words): in vivo in the rat
in vivo = conditions: male, Wistar Han, rat, plasma, iv, 0.1 mg/kg
human hepatocytes = assay: In vitro metabolism in human hepatocytes; assay type: in vitro ADME; conditions: 17-β carboxylic acid (X) the only significant metabolite
rat hepatocytes = assay: In vitro metabolism in rat hepatocytes; assay type: in vitro ADME; conditions: 17-β carboxylic acid (X) the only significant metabolite

Structure (SMILES): CCC(=O)O[C@]1(C(=O)SCF)[C@H](C)C[C@H]2[C@@H]3C[C@H](F)C4=CC(=O)C=C[C@]4(C)[C@@]3(F)[C@@H](O)C[C@@]21C [Fluticasone propionate, 6α, 9α-Difluoro-17α-(1-oxopropoxy)-11β-hydroxy-16α-methyl-3-oxo-androsta-1,4-diene-17β-carbothioic acid S-fluoromethyl ester, reference compound]
- reduction of thymus weight (thymus weight): 78%
- time after dosing up to which quantifiable in plasma [1]: up to 8 hours
- clearance (in words) [2]: similar
- pharmacokinetic parameters following intravenous administration (in words) [2]: the same
- inhibition of lung eosinophilia (lung eosinophilia): 41%

Structure (SMILES): C[C@@H]1C[C@H]2[C@@H]3C[C@H](F)C4=CC(=O)C=C[C@]4(C)[C@@]3(F)[C@@H](O)C[C@]2(C)[C@@]1(OC(=O)c1ccco1)C(=O)O [Metabolite (X)]
- fold less active than the parent compound (glucocorticoid receptor; in vitro functional glucocorticoid agonist assays, relative to Example 1): > 1000 fold
- EC50 [3]: > 250 nM
- EC50 [4]: > 1000 nM

Structure (SMILES): Cc1cc(C(=O)OC2(C(=O)SCF)C(C)CC3C4CC(F)C5=CC(=O)C=CC5(C)C4(F)C(O)CC32C)on1 (stereo not drawn) [Example 25, 6α,9α-Difluoro-11β-hydroxy-16α-methyl-17α-[(3-methylisoxazole-5-carbonyl)oxy]-3-oxo-androsta-1,4-diene-17β-carbothioic acid S-fluoromethyl ester]
- plasma clearance (in words) [5]: approaching hepatic blood flow
- clearance (in vivo): 46 mL/min/kg

Structure (SMILES): Cc1ncsc1C(=O)OC1(C(=O)SCF)C(C)CC2C3CC(F)C4=CC(=O)C=CC4(C)C3(F)C(O)CC21C (stereo not drawn) [Example 41, 6α,9α-Difluoro-11β-hydroxy-16α-methyl-17α-[(4-methyl-1,3-thiazole-5-carbonyl)oxy]-3-oxo-androsta-1,4-diene-17β-carbothioic acid S-fluoromethyl ester]
- clearance (in vivo): 42 mL/min/kg

Structure (SMILES): Cc1nc(C)c(C(=O)O[C@]2(C(=O)SCF)[C@H](C)C[C@H]3[C@@H]4C[C@H](F)C5=CC(=O)C=C[C@]5(C)[C@@]4(F)[C@@H](O)C[C@@]32C)s1 [Example 23, 6α,9α-Difluoro-17α-[(2,4-dimethyl-1,3-thiazole-5-carbonyl)oxy]-11β-hydroxy-16α-methyl-3-oxo-androsta-1,4-diene-17 β-carbothioic acid S-fluoromethyl ester]
- EC50 (glucocorticoid receptor): 17 nM

Structure (SMILES): C[C@@H]1CC2C3C[C@H](F)C4=CC(=O)C=C[C@]4(C)[C@@]3(F)[C@@H](O)C[C@]2(C)[C@@]1(OC(=O)c1ccco1)C(=O)SCF (stereo partly drawn) [Example 1, 6α,9α-Difluoro-17α-[(2-furanylcarbonyl)oxy]-11β-hydroxy-16α-methyl-3-oxo-androsta-1,4-diene-17β-carbothioic acid S-fluoromethyl ester]
- reduction of thymus weight (thymus weight): 67%
- plasma clearance ([5]; IV 0.1 mg/kg, male Wistar Han rats): 47.3 mL/min/kg
- plasma clearance (in words) [5]: approaching hepatic blood flow
- time after dosing up to which quantifiable in plasma [1]: up to 2 hours
- Cmax ([1]; Pig 1): 117 pg/mL
- AUC (0-inf) ([1]; Pig 1): 254 pg·h/mL
- Cmax ([1]; Pig 2): 81 pg/mL
- AUC (0-inf) ([1]; Pig 2): 221 pg·h/mL
- systemic exposure compared to fluticasone propionate (in words) ([1]; dry powder delivery to the lungs of anaesthetised pigs): markedly reduced systemic exposure; also recorded: significantly lower exposure
- manner of metabolism (in words) (human hepatocytes): metabolised in an identical manner to fluticasone propionate
- manner of metabolism (in words) (rat hepatocytes): metabolised in an identical manner to fluticasone propionate
- clearance (in words) [2]: similar
- pharmacokinetic parameters following intravenous administration (in words) [2]: the same
- inhibition of lung eosinophilia (in words) (lung eosinophilia; intra-tracheal suspension in saline 30 min prior to ovalbumin challenge): dose dependant inhibition
- inhibition of lung eosinophilia (lung eosinophilia): 69%

Structure (SMILES): CC1CC2C3CC(F)C4=CC(=O)C=CC4(C)C3(F)C(O)CC2(C)C1(OC(=O)c1ccon1)C(=O)SCF (stereo not drawn) [Example 28, 6α,9α-Difluoro-11β-hydroxy-17α-[(isoxazole-3-carbonyl)oxy]-16α-methyl-3-oxo-androsta-1,4-diene-17β-carbothioic acid S-fluoromethyl ester]
- plasma clearance (in words) [5]: approaching hepatic blood flow
- clearance (in vivo): 51 mL/min/kg

Structure (SMILES): C[C@@H]1C[C@H]2[C@@H]3C[C@H](F)C4=CC(=O)C=C[C@]4(C)[C@@]3(F)[C@@H](O)C[C@]2(C)[C@@]1(OC(=O)c1cc(Cl)sc1Cl)C(=O)SCF [Example 14, 17α-[(2,5-Dichlorothiophene-3-carbonyl)oxy]-6α,9α-difluoro-11β-hydroxy-16α-methyl-3-oxo-androsta-1,4-diene-17β-carbothioic acid S-fluoromethyl ester]
- EC50 (glucocorticoid receptor): 2 nM

Structure (SMILES): Cc1ccoc1C(=O)OC1(C(=O)SCF)C(C)CC2C3CC(F)C4=CC(=O)C=CC4(C)C3(F)C(O)CC21C (stereo not drawn) [Example 19, 6α,9α-Difluoro-11β-hydroxy-16α-methyl-17α-[(3-methylfuran-2-carbonyl)oxy]-3-oxo-androsta-1,4-diene-17β-carbothioic acid S-fluoromethyl ester]
- plasma clearance (in words) [5]: approaching hepatic blood flow
- clearance (in vivo): 48 mL/min/kg

Structure (SMILES): Cc1noc(C)c1C(=O)O[C@]1(C(=O)SCF)[C@H](C)C[C@H]2[C@@H]3C[C@H](F)C4=CC(=O)C=C[C@]4(C)[C@@]3(F)[C@@H](O)C[C@@]21C [Example 10, 6α,9α-Difluoro-17α-[(3,5-dimethylisoxazole-4-carbonyl)oxy]-11β-hydroxy-16α-methyl-3-oxo-androsta-1,4-diene-17β-carbothioic acid S-fluoromethyl ester]
- EC50 (glucocorticoid receptor): 1 nM

Structure (SMILES): Cc1cc(C(=O)OC2(C(=O)SCF)C(C)CC3C4CC(F)C5=CC(=O)C=CC5(C)C4(F)C(O)CC32C)no1 (stereo not drawn) [Example 24, 6α,9α-Difluoro-11β-hydroxy-16α-methyl-17α-[(5-methylisoxazole-3-carbonyl)oxy]-3-oxo-androsta-1,4-diene-17β-carbothioic acid S-fluoromethyl ester]
- plasma clearance (in words) [5]: approaching hepatic blood flow
- clearance (in vivo): 47 mL/min/kg

Structure (SMILES): CC1CC2C3CC(F)C4=CC(=O)C=CC4(C)C3(F)C(O)CC2(C)C1(OC(=O)c1ccsc1)C(=O)SCF (stereo not drawn) [Example 4, 6α,9α-Difluoro-11β-hydroxy-16α-methyl-3-oxo-17α-[(3-thienylcarbonyl)oxy]-androsta-1,4-diene-17β-carbothioic acid S-fluoromethyl ester]
- plasma clearance (in words) [5]: approaching hepatic blood flow
- clearance (in vivo): 49 mL/min/kg

Reference: US6878698B2, “Anti-inflammatory androstane derivatives” (Glaxo Group Limited, priority 2001, dated 2005)
